Test systems include SF-295 CNS; HT29 colon; MDA-MB-231 breast; KM12 colon; UACC-62 melanoma; HOP-62 NSCLC; EKVX NSCLC; CCRF-CEM leukemia; SNB-19 CNS; NCI-H226 lung.
What all share (experiment): inhibition of tumour cell growth, NCI panel, 48 h

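Each compound was tested at five concentrations against cells in 96-well plates for 48 hours. GI50: concentration for 50% inhibition of growth. TGI denotes the concentration required for complete inhibition of growth.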

As to `CC(=S)NC1C(Oc2ccc3c(C)cc(=O)oc3c2)OC(CO)C(O)C1O` (stereo unspecified), the TGI in the assay with SF-295 CNS, in the assay on HT29 colon, with MDA-MB-231 breast, in the assay with KM12 colon, in the assay on UACC-62 melanoma and with HOP-62 NSCLC was above 100 µM each time. In addition, the TGI in the assay on EKVX NSCLC, with CCRF-CEM leukemia, with SNB-19 CNS and with NCI-H226 lung was above 100 µM each time.
Turning to `O=C(O)CCCCCNC(=O)CCC(CN(CC(=O)OCc1ccccc1)CC(=O)OCc1ccccc1)N(CC(=O)OCc1ccccc1)CC(=O)OCc1ccccc1` (stereo unspecified), the TGI in the assay on SF-295 CNS turned out to be 32.2 µM; in the assay on HT29 colon, 33.7 µM; in the assay on MDA-MB-231 breast, 38.6 µM; with KM12 colon, 36.9 µM; in the assay with UACC-62 melanoma, 30.4 µM; with HOP-62 NSCLC, 41 µM. The TGI in the assay with EKVX NSCLC worked out at 49 µM; in the assay on CCRF-CEM leukemia, 39.7 µM; in the assay with SNB-19 CNS, 32.9 µM; in the assay on NCI-H226 lung, 54.2 µM.
`Clc1ccc(CCn2ccc3ccccc32)c(Cl)c1`: the TGI in the assay on SF-295 CNS, in the assay on HT29 colon, with MDA-MB-231 breast, in the assay with KM12 colon, in the assay with UACC-62 melanoma and with HOP-62 NSCLC was above 100 µM throughout. Besides, the TGI with EKVX NSCLC, with CCRF-CEM leukemia, in the assay with SNB-19 CNS and in the assay on NCI-H226 lung was above 100 µM in each case.
Regarding `C[N+]12C=CC=C1C(N1CCCC1)c1sc(-c3ccc(Cl)cc3)cc12` (stereo unspecified), the TGI with SF-295 CNS is 43.7 µM; in the assay on HT29 colon, 34.3 µM; in the assay on MDA-MB-231 breast, 35.5 µM; with KM12 colon it was 33.4 µM; in the assay on UACC-62 melanoma it was 28.4 µM; with HOP-62 NSCLC it was 31.3 µM. Further, the TGI in the assay with EKVX NSCLC was 79 µM; with CCRF-CEM leukemia, 62.8 µM; with SNB-19 CNS it was 26.8 µM; in the assay on NCI-H226 lung it was 35.3 µM.
For the compound `O=C(C(=O)n1ccc2ccccc21)c1c[nH]c2ccccc12`, the TGI with SF-295 CNS, in the assay with HT29 colon, in the assay with MDA-MB-231 breast, with KM12 colon, with UACC-62 melanoma and in the assay with HOP-62 NSCLC was above 10 µM throughout. The TGI in the assay with EKVX NSCLC, in the assay with CCRF-CEM leukemia, with SNB-19 CNS and in the assay on NCI-H226 lung was above 10 µM throughout.
As to `Nc1c2ccccc2nc2ccc(C(=O)Nc3ccc(S(N)(=O)=O)cc3)cc12`, the TGI in the assay with SF-295 CNS, in the assay with HT29 colon, in the assay on MDA-MB-231 breast, in the assay with KM12 colon, with UACC-62 melanoma and with HOP-62 NSCLC was above 100 µM in each case. The TGI in the assay with EKVX NSCLC, with CCRF-CEM leukemia, in the assay on SNB-19 CNS and in the assay with NCI-H226 lung was above 100 µM in each case.
For `CC(=O)CC(=O)Nn1c(-c2cccs2)nc2ccc(I)cc2c1=O`, the TGI was above 100 µM in the assay with SF-295 CNS; above 100 µM with HT29 colon; 63.7 µM with MDA-MB-231 breast; above 100 µM in the assay on KM12 colon; above 85 µM with UACC-62 melanoma; above 100 µM with HOP-62 NSCLC. Also, the TGI with EKVX NSCLC was above 66.1 µM; with CCRF-CEM leukemia, above 100 µM; in the assay on SNB-19 CNS it was above 100 µM; with NCI-H226 lung it was above 76.4 µM. In the assay on MDA-MB-231 breast, the GI50 is 16.4 µM.
In the case of `CCO/C=N/C1=C(C#N)C(c2ccc(OC)c(OC)c2)c2c(-c3ccccc3)nn(-c3ccccc3)c2O1` (stereo unspecified), the TGI is 30.7 µM in the assay with SF-295 CNS; 52.5 µM in the assay on HT29 colon; 40.4 µM in the assay with MDA-MB-231 breast; 22.1 µM with KM12 colon; 27.6 µM with UACC-62 melanoma; above 100 µM in the assay with HOP-62 NSCLC. Also, the TGI in the assay on EKVX NSCLC was determined as 33.1 µM; in the assay on CCRF-CEM leukemia it was 6.26 µM; with SNB-19 CNS, 29.6 µM; in the assay with NCI-H226 lung, 32.9 µM.
In the case of `Fc1ccccc1N=c1oc2ccc(Br)cc2cc1-c1nc2ccccc2[nH]1`, the TGI is 23.2 µM in the assay with SF-295 CNS; above 54.8 µM with HT29 colon; 25.8 µM in the assay on MDA-MB-231 breast; above 54.9 µM with KM12 colon; 51.5 µM in the assay on UACC-62 melanoma; 28.1 µM in the assay on HOP-62 NSCLC. In addition, the TGI is above 41.5 µM in the assay on EKVX NSCLC, above 100 µM with CCRF-CEM leukemia, 21.9 µM in the assay with SNB-19 CNS and 17.6 µM in the assay with NCI-H226 lung.
With `COc1cccc(C(=O)C(O)c2cccc(OC)c2OC)c1OC` (stereo unspecified), the TGI with SF-295 CNS, in the assay on HT29 colon, in the assay with MDA-MB-231 breast, in the assay on KM12 colon, in the assay on UACC-62 melanoma and in the assay with HOP-62 NSCLC was above 100 µM in each case. For the same compound, the TGI in the assay with EKVX NSCLC, in the assay on CCRF-CEM leukemia, in the assay on SNB-19 CNS and in the assay with NCI-H226 lung was above 100 µM each time.
With `O=C1CSC(c2ccc(Cl)cc2)N1c1ccc(-n2c(-c3ccccc3)nc3ccccc3c2=O)cc1` (stereo unspecified), the TGI in the assay on SF-295 CNS, in the assay on HT29 colon, in the assay with MDA-MB-231 breast, with KM12 colon, in the assay on UACC-62 melanoma and in the assay on HOP-62 NSCLC was above 100 µM in each case. Besides, the TGI with EKVX NSCLC, with CCRF-CEM leukemia, with SNB-19 CNS and in the assay on NCI-H226 lung was above 100 µM in each case.

These data come from PubChem BioAssay (NCI).
